Test results taken from publication PMC11121358, “Redox Properties of Bacillus subtilis Ferredoxin:NADP^+ Oxidoreductase: Potentiometric Characteristics and Reactions with Pro-Oxidant Xenobiotics” (International Journal of Molecular Sciences, 2024).

Target: T1, Bacillus subtilis ferredoxin:NADP^+ oxidoreductase (BsFNR) (Bacillus subtilis, UniProt O05268)
T1 construct: gene yumC
Assay: steady-state product inhibition of NADPH:plumbagin reductase reaction
Format: biochemical

T1 sequence (O05268 whole entry): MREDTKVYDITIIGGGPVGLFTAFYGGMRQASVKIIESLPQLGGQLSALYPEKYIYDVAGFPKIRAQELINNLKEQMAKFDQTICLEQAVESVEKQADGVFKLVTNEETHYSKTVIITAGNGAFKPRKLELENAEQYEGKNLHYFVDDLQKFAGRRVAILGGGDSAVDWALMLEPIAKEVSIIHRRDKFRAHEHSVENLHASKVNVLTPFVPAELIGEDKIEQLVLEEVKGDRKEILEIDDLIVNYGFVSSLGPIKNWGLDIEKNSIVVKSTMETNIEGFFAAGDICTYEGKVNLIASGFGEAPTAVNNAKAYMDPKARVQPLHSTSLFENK

NC(=O)c1ccc[n+]([C@@H]2O[C@H](COP(=O)(O)OP(=O)(O)OC[C@H]3O[C@@H](n4cnc5c(N)ncnc54)[C@H](OP(=O)(O)O)[C@@H]3O)[C@@H](O)[C@H]2O)c1 [NADP^+]
Ki: 62.6 ± 10.5 µM
